Results as given in patent publication EP4722207A1, “OXOISOINDOLINYL-SUBSTITUTED TETRAHYDROPYRIMIDINEDIONE DERIVATIVE AND USE THEREOF” (Gluetacs Therapeutics (Shanghai) Co., Ltd., priority 2023, dated 2024).

Key:
WEE1 = target: T1, WEE1 (Homo sapiens, UniProt P30291+Q96SW2); assay: Western-blot assay, substrate protein degradation in hPBMCs: WEE1; type: cell-based; settings: for substrate protein remaining % WEE1: 24 hours of compound treatment, 50 nM and 500 nM
T1 construct: effects of the compounds of the present disclosure on the expression of target proteins in cells; endogenous in cells; host or cells: human PBMCs (hPBMCs)

IKZF1 = target: T2, IKZF1 (Homo sapiens, UniProt Q13422+Q96SW2); assay: Western-blot assay, substrate protein degradation in hPBMCs: IKZF1; type: cell-based; settings: for substrate protein remaining % IKZF1: 24 hours of compound treatment, 50 nM and 500 nM
T2 construct: effects of the compounds of the present disclosure on the expression of target proteins in cells; endogenous in cells; host or cells: human PBMCs (hPBMCs)

IKZF2 = target: T3, IKZF2 (Homo sapiens, UniProt Q96SW2+Q9UKS7); assay: Western-blot assay, substrate protein degradation in hPBMCs: IKZF2; type: cell-based; settings: for substrate protein remaining % IKZF2: 24 hours of compound treatment, 50 nM and 500 nM
T3 construct: effects of the compounds of the present disclosure on the expression of target proteins in cells; endogenous in cells; host or cells: human PBMCs (hPBMCs)

IKZF3 = target: T4, IKZF3 (Homo sapiens, UniProt Q96SW2+Q9UKT9); assay: Western-blot assay, substrate protein degradation in hPBMCs: IKZF3; type: cell-based; settings: for substrate protein remaining % IKZF3: 24 hours of compound treatment, 50 nM and 500 nM
T4 construct: effects of the compounds of the present disclosure on the expression of target proteins in cells; endogenous in cells; host or cells: human PBMCs (hPBMCs)

CK1α = target: T5, CK1α (Homo sapiens, UniProt P48729+Q96SW2); assay: Western-blot assay, substrate protein degradation in hPBMCs: CK1α; type: cell-based; settings: for substrate protein remaining % CK1α: 24 hours of compound treatment, 50 nM and 500 nM
T5 construct: effects of the compounds of the present disclosure on the expression of target proteins in cells; endogenous in cells; host or cells: human PBMCs (hPBMCs)

GSPT1 = target: T6, GSPT1 (Homo sapiens, UniProt P15170+Q96SW2); assay: Western-blot assay, substrate protein degradation in hPBMCs: GSPT1; type: cell-based; settings: for substrate protein remaining % GSPT1: 24 hours of compound treatment, 50 nM and 500 nM
T6 construct: effects of the compounds of the present disclosure on the expression of target proteins in cells; endogenous in cells; host or cells: human PBMCs (hPBMCs)

MV-4-11 = assay: Cell viability assay (CellTiter-Meiluncell Luminescent), tumor cell proliferation, MV-4-11; settings: Homo sapiens, MV4-11, 96 h; for IC50: read-out: inhibitory activity (IC50, nM) against tumor cells proliferation, MV-4-11; for inhibition at 0.01 µM: read-out: Inhibition Rate at 10 nM (%); for inhibition at 0.5 µM: read-out: Inhibition Rate at 500 nM (%)
H292 = assay: Cell viability assay (CellTiter-Meiluncell Luminescent), tumor cell proliferation, H292; settings: Homo sapiens, NCI-H292, 96 h; for inhibition at 0.01 µM: read-out: Inhibition Rate at 10 nM (%); for inhibition at 0.5 µM: read-out: Inhibition Rate at 500 nM (%)
[1] = compounds at 50 nM and 500 nM, 24 hours

T4 sequence (Q9UKT9 whole entry): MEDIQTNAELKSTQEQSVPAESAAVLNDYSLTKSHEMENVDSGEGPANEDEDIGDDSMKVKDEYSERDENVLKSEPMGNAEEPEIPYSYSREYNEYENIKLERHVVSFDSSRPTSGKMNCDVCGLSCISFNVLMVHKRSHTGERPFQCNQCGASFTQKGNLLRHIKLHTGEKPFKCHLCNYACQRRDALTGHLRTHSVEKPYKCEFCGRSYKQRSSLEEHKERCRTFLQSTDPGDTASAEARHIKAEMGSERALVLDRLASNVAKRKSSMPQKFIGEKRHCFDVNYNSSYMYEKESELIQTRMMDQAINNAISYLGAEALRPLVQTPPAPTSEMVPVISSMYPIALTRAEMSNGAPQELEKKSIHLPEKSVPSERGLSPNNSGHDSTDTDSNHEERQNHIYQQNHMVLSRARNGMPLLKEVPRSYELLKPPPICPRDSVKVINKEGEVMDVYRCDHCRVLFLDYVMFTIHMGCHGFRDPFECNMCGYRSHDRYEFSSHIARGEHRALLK
T4 sequence (Q96SW2 whole entry): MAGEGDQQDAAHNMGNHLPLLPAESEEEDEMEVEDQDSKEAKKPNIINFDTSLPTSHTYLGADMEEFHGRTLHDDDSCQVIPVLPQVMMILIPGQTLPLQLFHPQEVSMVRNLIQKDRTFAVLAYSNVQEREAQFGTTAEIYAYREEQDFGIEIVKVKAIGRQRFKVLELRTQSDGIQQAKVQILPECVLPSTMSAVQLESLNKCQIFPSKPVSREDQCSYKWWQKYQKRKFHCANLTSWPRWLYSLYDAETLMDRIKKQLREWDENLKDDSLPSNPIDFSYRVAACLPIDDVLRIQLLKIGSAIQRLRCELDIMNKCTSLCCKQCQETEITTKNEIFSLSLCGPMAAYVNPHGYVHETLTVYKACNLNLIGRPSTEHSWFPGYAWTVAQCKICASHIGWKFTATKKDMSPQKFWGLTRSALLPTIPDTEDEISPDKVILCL
T4 sequence (Q16531 whole entry partner): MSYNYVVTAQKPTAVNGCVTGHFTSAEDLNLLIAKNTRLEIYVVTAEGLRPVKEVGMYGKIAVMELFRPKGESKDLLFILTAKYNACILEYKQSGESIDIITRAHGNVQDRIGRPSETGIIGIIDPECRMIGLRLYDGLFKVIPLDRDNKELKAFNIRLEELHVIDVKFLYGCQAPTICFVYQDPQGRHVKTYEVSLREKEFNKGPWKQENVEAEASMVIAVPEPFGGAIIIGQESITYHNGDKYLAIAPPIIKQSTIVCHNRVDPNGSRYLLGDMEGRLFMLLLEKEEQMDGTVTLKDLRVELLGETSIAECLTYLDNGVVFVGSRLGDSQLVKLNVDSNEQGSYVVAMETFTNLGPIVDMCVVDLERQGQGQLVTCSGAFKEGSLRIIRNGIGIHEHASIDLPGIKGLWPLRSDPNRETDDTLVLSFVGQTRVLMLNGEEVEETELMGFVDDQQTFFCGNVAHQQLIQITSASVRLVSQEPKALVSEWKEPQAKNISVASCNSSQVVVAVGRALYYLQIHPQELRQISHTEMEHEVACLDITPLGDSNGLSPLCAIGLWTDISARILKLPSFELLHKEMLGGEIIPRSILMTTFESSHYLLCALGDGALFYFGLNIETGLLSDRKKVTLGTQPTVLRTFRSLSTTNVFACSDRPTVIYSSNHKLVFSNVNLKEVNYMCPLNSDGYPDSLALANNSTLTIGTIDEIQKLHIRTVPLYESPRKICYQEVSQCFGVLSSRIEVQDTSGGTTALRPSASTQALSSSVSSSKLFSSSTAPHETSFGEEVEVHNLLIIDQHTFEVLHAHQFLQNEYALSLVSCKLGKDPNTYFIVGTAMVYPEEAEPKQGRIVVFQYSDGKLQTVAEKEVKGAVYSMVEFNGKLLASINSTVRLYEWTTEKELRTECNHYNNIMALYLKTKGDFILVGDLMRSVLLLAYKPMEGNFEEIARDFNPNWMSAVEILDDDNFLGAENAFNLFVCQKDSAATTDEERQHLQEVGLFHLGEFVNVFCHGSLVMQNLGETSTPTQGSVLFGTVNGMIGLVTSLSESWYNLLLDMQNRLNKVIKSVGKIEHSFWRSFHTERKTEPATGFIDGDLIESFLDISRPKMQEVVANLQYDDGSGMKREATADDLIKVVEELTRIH
T6 sequence (P15170 whole entry): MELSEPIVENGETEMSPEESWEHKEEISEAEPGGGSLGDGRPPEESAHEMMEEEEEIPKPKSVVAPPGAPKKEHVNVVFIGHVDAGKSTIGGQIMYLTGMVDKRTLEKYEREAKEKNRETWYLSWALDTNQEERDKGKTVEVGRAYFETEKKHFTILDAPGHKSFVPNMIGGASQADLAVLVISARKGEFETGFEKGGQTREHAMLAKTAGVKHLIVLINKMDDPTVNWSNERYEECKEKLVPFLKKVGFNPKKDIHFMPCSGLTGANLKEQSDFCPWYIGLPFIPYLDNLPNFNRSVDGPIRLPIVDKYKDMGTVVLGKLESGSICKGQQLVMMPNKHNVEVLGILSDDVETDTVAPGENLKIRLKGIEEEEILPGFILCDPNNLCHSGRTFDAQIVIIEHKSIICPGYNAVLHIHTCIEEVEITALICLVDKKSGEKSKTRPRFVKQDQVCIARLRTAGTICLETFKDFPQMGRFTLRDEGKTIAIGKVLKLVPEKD
T6 sequence (Q96SW2 whole entry): as the sequence (Q96SW2 whole entry) above
T6 sequence (Q16531 whole entry partner): as the sequence (Q16531 whole entry partner) above
T5 sequence (P48729 whole entry): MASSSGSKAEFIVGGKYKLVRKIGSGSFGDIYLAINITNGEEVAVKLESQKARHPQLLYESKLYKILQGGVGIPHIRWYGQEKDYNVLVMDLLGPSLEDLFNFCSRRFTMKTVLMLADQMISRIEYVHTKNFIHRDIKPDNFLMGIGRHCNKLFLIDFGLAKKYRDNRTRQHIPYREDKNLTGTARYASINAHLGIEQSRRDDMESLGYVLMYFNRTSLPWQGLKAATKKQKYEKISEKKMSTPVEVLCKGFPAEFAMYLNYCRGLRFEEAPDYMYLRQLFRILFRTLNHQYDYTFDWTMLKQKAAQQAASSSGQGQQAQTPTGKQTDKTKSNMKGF
T5 sequence (Q96SW2 whole entry): as the sequence (Q96SW2 whole entry) above
T5 sequence (Q16531 whole entry partner): as the sequence (Q16531 whole entry partner) above
T3 sequence (Q9UKS7 whole entry): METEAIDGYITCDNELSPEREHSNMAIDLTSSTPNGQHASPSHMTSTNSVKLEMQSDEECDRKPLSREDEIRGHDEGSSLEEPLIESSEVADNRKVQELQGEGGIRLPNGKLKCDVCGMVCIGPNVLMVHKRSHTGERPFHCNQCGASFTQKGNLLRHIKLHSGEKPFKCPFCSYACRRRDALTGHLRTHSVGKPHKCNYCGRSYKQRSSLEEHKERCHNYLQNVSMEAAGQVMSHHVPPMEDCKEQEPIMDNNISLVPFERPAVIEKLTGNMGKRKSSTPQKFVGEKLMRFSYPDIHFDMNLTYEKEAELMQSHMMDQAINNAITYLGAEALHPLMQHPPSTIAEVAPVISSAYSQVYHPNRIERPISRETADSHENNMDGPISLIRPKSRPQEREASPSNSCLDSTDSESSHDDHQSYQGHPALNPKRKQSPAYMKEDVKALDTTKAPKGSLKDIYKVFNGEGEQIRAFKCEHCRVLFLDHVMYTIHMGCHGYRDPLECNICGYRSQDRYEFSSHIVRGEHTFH
T3 sequence (Q96SW2 whole entry): as the sequence (Q96SW2 whole entry) above
T3 sequence (Q16531 whole entry partner): as the sequence (Q16531 whole entry partner) above
T1 sequence (P30291 whole entry): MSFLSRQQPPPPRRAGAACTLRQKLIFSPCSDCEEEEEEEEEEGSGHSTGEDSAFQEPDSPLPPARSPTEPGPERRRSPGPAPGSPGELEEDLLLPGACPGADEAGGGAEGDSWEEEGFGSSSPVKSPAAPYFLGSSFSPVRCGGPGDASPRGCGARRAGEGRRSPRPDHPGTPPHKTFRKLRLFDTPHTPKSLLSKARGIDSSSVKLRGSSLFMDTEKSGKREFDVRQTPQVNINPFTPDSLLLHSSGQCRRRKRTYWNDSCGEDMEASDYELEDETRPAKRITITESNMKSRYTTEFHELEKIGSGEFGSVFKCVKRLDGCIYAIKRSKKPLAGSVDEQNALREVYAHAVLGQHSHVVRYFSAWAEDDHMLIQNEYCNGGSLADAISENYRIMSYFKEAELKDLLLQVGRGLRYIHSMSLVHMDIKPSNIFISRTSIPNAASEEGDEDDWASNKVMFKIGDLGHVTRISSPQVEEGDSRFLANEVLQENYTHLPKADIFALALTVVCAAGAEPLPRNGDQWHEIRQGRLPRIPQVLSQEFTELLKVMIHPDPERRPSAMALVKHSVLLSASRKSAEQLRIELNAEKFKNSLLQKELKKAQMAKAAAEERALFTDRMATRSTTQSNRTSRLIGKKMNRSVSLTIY
T1 sequence (Q96SW2 whole entry): as the sequence (Q96SW2 whole entry) above
T1 sequence (Q16531 whole entry partner): as the sequence (Q16531 whole entry partner) above

SMILES	WEE1 substrate protein remaining % (WEE1; [1])	IKZF1 substrate protein remaining % (IKZF1; [1])	IKZF2 substrate protein remaining % (IKZF2; [1])	IKZF3 substrate protein remaining % (IKZF3; [1])	CK1α substrate protein remaining % (CK1α; [1])	GSPT1 substrate protein remaining % (GSPT1; [1])	IC50 (MV-4-11)	inhibition at 0.01 µM (MV-4-11)	inhibition at 0.5 µM (MV-4-11)	substrate protein remaining % WEE1 (WEE1)	substrate protein remaining % IKZF1 (IKZF1)	substrate protein remaining % IKZF2 (IKZF2)	substrate protein remaining % IKZF3 (IKZF3)	substrate protein remaining % CK1α (CK1α)	substrate protein remaining % GSPT1 (GSPT1)	inhibition at 0.01 µM (H292)	inhibition at 0.5 µM (H292)
O=C1CCN(N2Cc3cc(CN4CCN(c5ccccc5)CC4)ccc3C2=O)C(=O)N1 [GT-06696, 1-(1-oxo-5-((4-phenylpiperazin-1-yl)methyl)isoindolin-2-yl)dihydropyrimidine-2,4(1H,3H)-dione]	B ("B" is defined as 80%< substrate protein remaining %≤ 100%)	B ("B" is defined as 80%< substrate protein remaining %≤ 100%)	B ("B" is defined as 80%< substrate protein remaining %≤ 100%)	B ("B" is defined as 80%< substrate protein remaining %≤ 100%)	B ("B" is defined as 80%< substrate protein remaining %≤ 100%)	A ("A" is defined as 0% ≤ substrate protein remaining % ≤ 80%)	100 to 300 nM										
O=C1CCN(N2Cc3cc(CN4CCN(c5ccc(C(F)(F)F)cc5)CC4)ccc3C2=O)C(=O)N1 [GT-06700, 1-(1-oxo-5-((4-(4-(trifluoromethyl)phenyl)piperazin-1-yl)methyl)isoindolin-2-yl)dihydropyrimidine-2,4(1H,3H)-dione]							50 to 100 nM										
CC1(C)CCC(CN2C3CCC2CN(Cc2ccc4c(c2)C(=O)N(N2CCC(=O)NC2=O)C4=O)C3)=C(c2ccc(Cl)cc2)C1 [GT-07887, 5-((8-((4'-chloro-5,5-dimethyl-3,4,5,6-tetrahydro-[1,1'-biphenyl]-2-yl)methyl)-3,8-diazabicyclo[3.2.1]octan-3-yl)methyl)-2-(2,4-dioxotetrahydropyrimidin-1(2H)-yl)isoindoline-1,3-dione]								25 to 30%	30 to 40%								
Cc1nc(N2CCN(Cc3ccc4c(c3)C(=O)N(N3CCC(=O)NC3=O)C4=O)CC2)c2c3c(sc2n1)CCCC3 [GT-08101, 2-(2,4-dioxotetrahydropyrimidin-1(2H)-yl)-5-((4-(2-methyl-5,6,7,8-tetrahydrobenzo[4,5]thieno[2,3-d]pyrimidin-4-yl)piperazin-1-yl)methyl)isoindoline-1,3-dione]								18 to 25%	25 to 30%								
Cc1nc(C2=CCN(Cc3ccc4c(c3)CN(N3CCC(=O)NC3=O)C4=O)CC2)c2c3c(sc2n1)CCC3 [GT-08437, 1-(5-((4-(2-methyl-6,7-dihydro-5H-cyclopenta[4,5]thieno[2,3-d]pyrimidin-4-yl)-3,6-dihydropyridin-1(2H)-yl)methyl)-1-oxoisoindolin-2-yl)dihydropyrimidine-2,4(1H,3H)-dione]										A (0% ≤ substrate protein remaining % ≤ 80%)	A (0% ≤ substrate protein remaining % ≤ 80%)	B (80%< substrate protein remaining %≤ 100%)	A (0% ≤ substrate protein remaining % ≤ 80%)	B (80%< substrate protein remaining %≤ 100%)	A (0% ≤ substrate protein remaining % ≤ 80%)	20 to 40%	15 to 20%
O=C1CCN(N2Cc3cc(CN4CCN(c5nc(Cl)nc6c5SCC6)CC4)ccc3C2=O)C(=O)N1 [GT-08439, 1-(5-((4-(2-chloro-6,7-dihydrothieno[3,2-d]pyrimidin-4-yl)piperazin-1-yl)methyl)-1-oxoisoindolin-2-yl)dihydropyrimidine-2,4(1H,3H)-dione]										A (0% ≤ substrate protein remaining % ≤ 80%)	A (0% ≤ substrate protein remaining % ≤ 80%)	B (80%< substrate protein remaining %≤ 100%)	A (0% ≤ substrate protein remaining % ≤ 80%)	B (80%< substrate protein remaining %≤ 100%)	A (0% ≤ substrate protein remaining % ≤ 80%)	20 to 40%	20 to 40%
O=C1CCN(N2Cc3cc(CN4CCN(c5ncnc6ccsc56)CC4)ccc3C2=O)C(=O)N1 [GT-08443, 1-(1-oxo-5-((4-(thieno[3,2-d]pyrimidin-4-yl)piperazin-1-yl)methyl)isoindolin-2-yl)dihydropyrimidine-2,4(1H,3H)-dione]										A (0% ≤ substrate protein remaining % ≤ 80%)	B (80%< substrate protein remaining %≤ 100%)	B (80%< substrate protein remaining %≤ 100%)	B (80%< substrate protein remaining %≤ 100%)	B (80%< substrate protein remaining %≤ 100%)	B (80%< substrate protein remaining %≤ 100%)	20 to 40%	40 to 60%
O=C1CCN(N2C(=O)c3ccc(CN4CCN(c5nc(Cl)nc6c5SCC6)CC4)cc3C2=O)C(=O)N1 [GT-08448, 5-((4-(2-chloro-6,7-dihydrothieno[3,2-d]pyrimidin-4-yl)piperazin-1-yl)methyl)-2-(2,4-dioxotetrahydropyrimidin-1(2H)-yl)isoindoline-1,3-dione]										B (80%< substrate protein remaining %≤ 100%)	B (80%< substrate protein remaining %≤ 100%)	B (80%< substrate protein remaining %≤ 100%)	B (80%< substrate protein remaining %≤ 100%)	B (80%< substrate protein remaining %≤ 100%)	A (0% ≤ substrate protein remaining % ≤ 80%)	20 to 40%	20 to 40%
O=C1CCN(N2C(=O)c3ccc(CN4CCN(c5nc6c(c(N7CCOCC7)n5)SCC6)CC4)cc3C2=O)C(=O)N1 [GT-08451, 2-(2,4-dioxotetrahydropyrimidin-1(2H)-yl)-5-((4-(4-morpholino-6,7-dihydrothieno[3,2-d]pyrimidin-2-yl)piperazin-1-yl)methyl)isoindoline-1,3-dione]										B (80%< substrate protein remaining %≤ 100%)	B (80%< substrate protein remaining %≤ 100%)	B (80%< substrate protein remaining %≤ 100%)	A (0% ≤ substrate protein remaining % ≤ 80%)	A (0% ≤ substrate protein remaining % ≤ 80%)	B (80%< substrate protein remaining %≤ 100%)	15 to 20%	20 to 40%
O=C1CCN(N2C(=O)c3ccc(CN4CCN(c5ncnc6ccsc56)CC4)cc3C2=O)C(=O)N1 [GT-08452, 2-(2,4-dioxotetrahydropyrimidin-1(2H)-yl)-5-((4-(thieno[3,2-d]pyrimidin-4-yl)piperazin-1-yl)methyl)isoindoline-1,3-dione]										A (0% ≤ substrate protein remaining % ≤ 80%)	A (0% ≤ substrate protein remaining % ≤ 80%)	B (80%< substrate protein remaining %≤ 100%)	A (0% ≤ substrate protein remaining % ≤ 80%)	A (0% ≤ substrate protein remaining % ≤ 80%)	B (80%< substrate protein remaining %≤ 100%)	20 to 40%	5 to 10%
O=C1CCN(N2C(=O)c3ccc(CN4CCN(c5nc(Cl)nc6ccsc56)CC4)cc3C2=O)C(=O)N1 [GT-08453, 5-((4-(2-chlorothieno[3,2-d]pyrimidin-4-yl)piperazin-1-yl)methyl)-2-(2,4-dioxotetrahydropyrimidin-1(2H)-yl)isoindoline-1,3-dione]										B (80%< substrate protein remaining %≤ 100%)	A (0% ≤ substrate protein remaining % ≤ 80%)	B (80%< substrate protein remaining %≤ 100%)	A (0% ≤ substrate protein remaining % ≤ 80%)	A (0% ≤ substrate protein remaining % ≤ 80%)	A (0% ≤ substrate protein remaining % ≤ 80%)	20 to 40%	10 to 15%
O=C1CCN(N2C(=O)c3ccc(CN4CCN(c5nc(N6CCOCC6)nc6ccsc56)CC4)cc3C2=O)C(=O)N1 [GT-08455, 2-(2,4-dioxotetrahydropyrimidin-1(2H)-yl)-5-((4-(2-morpholinothieno[3,2-d]pyrimidin-4-yl)piperazin-1-yl)methyl)isoindoline-1,3-dione]										B (80%< substrate protein remaining %≤ 100%)	B (80%< substrate protein remaining %≤ 100%)	B (80%< substrate protein remaining %≤ 100%)	A (0% ≤ substrate protein remaining % ≤ 80%)	A (0% ≤ substrate protein remaining % ≤ 80%)	A (0% ≤ substrate protein remaining % ≤ 80%)	5 to 10%	15 to 20%
